Test results: US8664384B2, “N6-(ferrocenmethyl)quinazolin-2,4,6-triamina (H2) and the derivatives and prodrugs thereof as antileishmanial, antiprotozoal, antiparasitic and antimicrobial agents” (priority 2010, dated 2014)
Read-outs that look alike come from different tables or passages of the source.

How the values were obtained:
[1] = tested on: murine cells; assay: in vitro cytotoxicity against murine cells; format: cell-based; settings: in vitro studies
Text: (§1) Cytotoxicity against murine cells was not found in in vitro studies or in vivo studies using oral, parenteral, or dermal administration in mice.

[2] = tested on: microorganisms, parasites, and protozoa, including members of the Leishmania genus; assay: antimicrobial, antiparasitic and leishmanicide activity (general statement); format: cell-based; settings: from 0.1 μg/ml to greater than 100 μg/ml
Protocol: The N^6-(ferrocenmethyl)quinazoline-2,4,6-triamine compound, which we refer to as H2, presents antimicrobial, antiparasitic, and leishmanicide activity from 0.1 μg/ml to greater than 100 μg/ml. H2 can be used in the treatment of infections caused by microorganisms, parasites, and protozoa, including members of the Leishmania genus in particular.

[3] = tested on: Leishmania mexicana MNYC/BZ/62/M379 reference strain; format: cell-based
Protocol: FIG. 3: A plot showing the H2 prodrug activity toward the in vitro growth of Leishmania Mexicana. To obtain a higher sensitivity in this experiment, the MNYC/BZ/62/M379 reference strain, which has a higher sensitivity to H2 than does MHOM/MX/01/Tab3, was used. The number of parasites/ml was determined at 72 hours of incubation using 100 mM of each compound in four replicates. The culture conditions were the same as described in FIG. 1.
The following is a list of Leishmania mexicana growth inhibition activity by the prodrugs compared to H2 and a control.

[4] = tested on: Leishmania mexicana strain MHOM/MX/01/Tab3; assay: in vitro growth of Leishmania mexicana, parasite count in Neubauer chamber; format: cell-based
Protocol: FIG. 1: The biological activity of H2 toward the in vitro growth of Leishmania mexicana strain MHOM/MX/01/Tab3. A growth curve collected after 72 hours of parasite cultivation in a Neubauer chamber in the presence of the H2 is shown. The H2 concentration is shown on the horizontal axis, whereas the number of parasites/ml is shown on the vertical axis. The experiment was performed at room temperature using high-glucose Dulbecco's Modified Eagle's Medium with 10% fetal bovine serum.
FIG. 2: Photograph obtained using an inverted microscope showing the inhibition of Leishmania growth by H2. The parasite culture shown in the left image was grown under the same conditions described in FIG. 1 but with the absence of H2.
At greater than 5 μg/ml, H2 is lethal to Leishmania in less than 5 hours. The in vitro effect is apparent at 30 minutes after application. The parasite structure is modified such that it loses its characteristic form, loses refringence, becomes spherical, and is incapable of multiplying. H2 has a CL50 of 2.6 μm/ml for the Leishmania mexicana MHOM/MX/01/Tab3 strain. The mechanism of cellular damage could not be identified by means of annexin for concentrations greater than 10 μg/ml; it is thought that a necrosis process rather than apoptosis is likely involved.

[5] = tested on: mice; assay: in vivo toxicity studies in mice; settings: oral, parenteral, or dermal administration in mice
Text: as §1

[6] = tested on: Leishmania mexicana cultures (Tab3 or M379 strain); assay: elimination of parasites in Leishmania mexicana cultures; format: cell-based; settings: 3 μg/ml; 10^6 parasites/ml; Dulbecco's medium with 4.5 mg/mL glucose and 10% fetal bovine serum
Protocol: H2 (3 μg/ml) eliminates more than 90% of the parasites in Leishmania mexicana cultures (Tab3 or M379 strain) with 10^6 parasites/ml in Dulbecco's medium modified with 4.5 mg/mL glucose and 10% fetal bovine serum.

Q: How did the “cytotoxicity against murine cells” value [1] turn out when “N^6-(ferrocenmethyl)quinazoline-2,4,6-triamine [Compound H2]” was run?
A: not found

Q: And the “concentration at which antimicrobial, antiparasitic, and leishmanicide activity is presented” value [2]?
A: ≥ 0.1 µg/mL

Q: And the “% of Leishmania Growth Inhibition” value ([3]; 72 hours of incubation, 100 mM of each compound, four replicates, M379 strain (FIG. 3))?
A: 100%

Q: What about the “effect on parasite culture (inverted microscope, FIG. 2)” value ([4]; 1 μg/ml H2, conditions of FIG. 1) of the same molecule?
A: clear lack of growth and destruction of the parasite

Q: And the “time until lethal to Leishmania” value ([4]; H2 at greater than 5 μg/ml)?
A: less than 5 hours

Q: What about the CL50 ([4]; Leishmania mexicana MHOM/MX/01/Tab3 strain) of the same molecule?
A: 2.6 μm/ml

Q: And the “speed of killing the total amount of parasites compared to meglumine antimoniate, metronidazole or hydroxyurea” value ([4]; faster than previously described compounds, at doses ten-fold lower or less)?
A: up to 10 fold

Q: And the “time at which the in vitro effect is apparent after application” value ([4]; in vitro)?
A: 30 min

Q: What about the cytotoxicity in vivo [5] of the same molecule?
A: not found

Q: What about the parasites eliminated [6] of the same molecule?
A: more than 90%

Q: How did the “% of Leishmania Growth Inhibition” value [3] turn out when `[Fe+2].c1cc[cH-]c1.c1ccc(NC[c-]2cccc2)cc1` [FBC, N-(ferrocenmethyl)aniline, reference compound] was run?
A: 32%
